Data reported in US12570662B2, “Substituted pyrrolo[1,2-b]pyridazines as bifunctional degraders of interleukin-1 receptor-associated kinases” (Nurix Therapeutics, Inc., priority 2021, dated 2026).

Biological target: T1, IRAK4 (Homo sapiens, UniProt Q9NWZ3)
T1 construct: C-terminal HiBiT-tagged Jurkat cells (polyclonal cell line or clone 8D5); endogenous in cells; host or cells: Jurkat cells (polyclonal cell line or clone 8D5), HiBiT-tagged
T1 sequence (Q9NWZ3 1-460): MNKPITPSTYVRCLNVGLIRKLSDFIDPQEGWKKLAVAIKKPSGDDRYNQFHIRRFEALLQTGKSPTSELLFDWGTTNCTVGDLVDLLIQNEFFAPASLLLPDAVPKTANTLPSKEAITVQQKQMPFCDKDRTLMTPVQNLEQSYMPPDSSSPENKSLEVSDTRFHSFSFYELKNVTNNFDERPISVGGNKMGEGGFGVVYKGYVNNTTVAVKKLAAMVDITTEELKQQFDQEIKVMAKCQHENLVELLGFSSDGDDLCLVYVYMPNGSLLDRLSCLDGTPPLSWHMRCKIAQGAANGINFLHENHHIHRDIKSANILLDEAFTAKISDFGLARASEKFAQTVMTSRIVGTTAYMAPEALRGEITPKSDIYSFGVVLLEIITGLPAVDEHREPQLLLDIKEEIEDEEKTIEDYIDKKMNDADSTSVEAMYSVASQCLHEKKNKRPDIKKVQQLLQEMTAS
Test: IRAK4 Degradation HiBit Assay
Type: cell-based
Settings: C-terminal HiBiT-tagged Jurkat cells, 4 hrs incubation; for DC50: % IRAK4 remaining, four-parameter fit (IC50 used as DC50); for Dmax: from fit of % IRAK4 remaining, read-out: Dmax
How it was run: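 Degradation was quantified by luminescence after adding lytic detection reagent containing LgBiT to HiBiT-tagged Jurkat cells (polyclonal or clone 8D5). Cells were treated 4 h at 32 °C across 11 concentrations from 10 μM to 0.1 nM final. Four-parameter curve fitting of % IRAK4 remaining versus DMSO gave DC50 and Dmax.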

DC50 [nM] | Dmax [%] | Compound
15 | 111 | CNc1cc(-c2ccc3cc(C#N)cnn23)ncc1-c1nnc(C23CCC(NC(=O)C4CCN(c5ccc(C6CCC(=O)NC6=O)cn5)CC4)(CC2)CC3)s1 (racemic) [Example 47, rac-N-{4-[5-(6-{3-cyanopyrrolo[1,2-b]pyridazin-7-yl}-4-(methylamino)pyridin-3-yl)-1,3,4-thiadiazol-2-yl]bicyclo[2.2.2]octan-1-yl}-1-{5-[(3R)-2,6-dioxopiperidin-3-yl]pyridin-2-yl}piperidine-4-carboxamide]
23 | 109 | CC(C)Nc1cc(-c2ccc3cc(C#N)cnn23)ncc1-c1nnc(N2CCN(C(=O)C3CCN(c4ccc(C5CCC(=O)NC5=O)cn4)CC3)CC2)s1 (racemic) [Example 48, rac-7-(5-{5-[4-(1-{5-[(3R)-2,6-dioxopiperidin-3-yl]pyridin-2-yl}piperidine-4-carbonyl)piperazin-1-yl]-1,3,4-thiadiazol-2-yl}-4-[(propan-2-yl)amino]pyridin-2-yl)pyrrolo[1,2-b]pyridazine-3-carbonitrile]
13 | 112 | CNc1cc(-c2ccc3cc(C#N)cnn23)ncc1-c1nnc([C@H]2CC[C@H](N(C)C(=O)C3CCN(c4ccc([C@@H]5CCC(=O)NC5=O)cn4)CC3)CC2)s1 (racemic) [Example 49, 1-{5-[(3RS)-2,6-dioxopiperidin-3-yl]pyridin-2-yl}-N-methyl-N-[(1r,4r)-4-[5-(6-{3-cyanopyrrolo[1,2-b]pyridazin-7-yl}-4-(methylamino)pyridin-3-yl)-1,3,4-thiadiazol-2-yl]cyclohexyl]piperidine-4-carboxamide]
91 | 111 | CNc1cc(-c2ccc3cc(C#N)cnn23)ncc1-c1nnc(N2CCC(N3CCN(CC4CCN(c5ccc(C6CCC(=O)NC6=O)cn5)CC4)CC3)CC2)s1 (racemic) [Example 50, 7-[5-(5-{4-[4-({1-[5-(2,6-dioxopiperidin-3-yl)pyridin-2-yl]piperidin-4-yl}methyl)piperazin-1-yl]piperidin-1-yl}-1,3,4-thiadiazol-2-yl)-4-(methylamino)pyridin-2-yl]pyrrolo[1,2-b]pyridazine-3-carbonitrile]
10 | 112 | CNc1cc(-c2ccc3cc(C#N)cnn23)ncc1-c1nnc(N2CCN(C(=O)C3CCN(c4ccc(C5CCC(=O)NC5=O)cn4)CC3)CC2)s1 (racemic) [Example 51, 7-{5-[5-(4-{1-[5-(2,6-dioxopiperidin-3-yl)pyridin-2-yl]piperidine-4-carbonyl}piperazin-1-yl)-1,3,4-thiadiazol-2-yl]-4-(methylamino)pyridin-2-yl}pyrrolo[1,2-b]pyridazine-3-carbonitrile]
19 | 113 | CNc1cc(-c2ccc3cc(C#N)cnn23)ncc1-c1nnc([C@H]2CC[C@H](N(C)CC3CCN(c4ccc([C@@H]5CCC(=O)NC5=O)cn4)CC3)CC2)s1 (racemic) [Example 52, 7-[4-(methylamino)-5-{5-[(1r,4r)-4-{[(1-{5-[(3RS)-2,6-dioxopiperidin-3-yl]pyridin-2-yl}piperidin-4-yl)methyl](methyl)amino}cyclohexyl]-1,3,4-thiadiazol-2-yl}pyridin-2-yl]pyrrolo[1,2-b]pyridazine-3-carbonitrile]
64 | 114 | CNc1cc(-c2ccc3cc(C#N)cnn23)ncc1-c1nnc(N2CCN(C3CCN(CC4CCN(c5ccc(C6CCC(=O)NC6=O)cn5)CC4)CC3)CC2)s1 (racemic) [Example 53, rac-7-{5-[5-(4-{1-[(1-{5-[(3R)-2,6-dioxopiperidin-3-yl]pyridin-2-yl}piperidin-4-yl)methyl]piperidin-4-yl}piperazin-1-yl)-1,3,4-thiadiazol-2-yl]-4-(methylamino)pyridin-2-yl}pyrrolo[1,2-b]pyridazine-3-carbonitrile]
95 | 112 | CNc1cc(-c2ccc3cc(C#N)cnn23)ncc1-c1nnc(N2CCC(C3CCN(CC4CCN(c5ccc(C6CCC(=O)NC6=O)cn5)CC4)CC3)CC2)s1 (racemic) [Example 54, rac-7-[5-(5-{1′-[(1-{5-[(3R)-2,6-dioxopiperidin-3-yl]pyridin-2-yl}piperidin-4-yl)methyl]-[4,4′-bipiperidin]-1-yl}-1,3,4-thiadiazol-2-yl)-4-(methylamino)pyridin-2-yl]pyrrolo[1,2-b]pyridazine-3-carbonitrile]
61 | 109 | CNc1cc(-c2ccc3cc(C#N)cnn23)ncc1-c1nnc(N2CC3(CCN(CC4CCN(c5ccc(C6CCC(=O)NC6=O)cn5)CC4)CC3)C2)s1 (racemic) [Example 55, rac-7-[5-(5-{7-[(1-{5-[(3R)-2,6-dioxopiperidin-3-yl]pyridin-2-yl}piperidin-4-yl)methyl]-2,7-diazaspiro[3.5]nonan-2-yl}-1,3,4-thiadiazol-2-yl)-4-(methylamino)pyridin-2-yl]pyrrolo[1,2-b]pyridazine-3-carbonitrile]
160 | 102 | CC(C)Nc1cc(-c2ccc3cc(C#N)cnn23)ncc1-c1nnc(N2CCN(CC3CCN(c4ccc(C5CCC(=O)NC5=O)cn4)CC3)CC2)s1 (racemic) [Example 56, rac-7-[5-(5-{4-[(1-{5-[(3R)-2,6-dioxopiperidin-3-yl]pyridin-2-yl}piperidin-4-yl)methyl]piperazin-1-yl}-1,3,4-thiadiazol-2-yl)-4-[(propan-2-yl)amino]pyridin-2-yl]pyrrolo[1,2-b]pyridazine-3-carbonitrile]
71 | 104 | N#Cc1cnn2c(-c3cc(NC4CCOCC4)c(-c4nnc(C56CCC(C(=O)N7CCc8cc(C9CCC(=O)NC9=O)ccc8C7)(CC5)CC6)s4)cn3)ccc2c1 (racemic) [Example 57, rac-7-{5-[5-(4-{6-[(3R)-2,6-dioxopiperidin-3-yl]-1,2,3,4-tetrahydroisoquinoline-2-carbonyl}bicyclo[2.2.2]octan-1-yl)-1,3,4-thiadiazol-2-yl]-4-[(oxan-4-yl)amino]pyridin-2-yl}pyrrolo[1,2-b]pyridazine-3-carbonitrile]
21 | 113 | CC1(Nc2cc(-c3ccc4cc(C#N)cnn34)ncc2-c2nnc(N3CCN(CC4CCN(c5ccc(C6CCC(=O)NC6=O)cn5)CC4)CC3)s2)COC1 (racemic) [Example 58, rac-7-[5-(5-{4-[(1-{5-[(3R)-2,6-dioxopiperidin-3-yl]pyridin-2-yl}piperidin-4-yl)methyl]piperazin-1-yl}-1,3,4-thiadiazol-2-yl)-4-[(3-methyloxetan-3-yl)amino]pyridin-2-yl]pyrrolo[1,2-b]pyridazine-3-carbonitrile]
7 | 120 | N#CCNc1cc(-c2ccc3cc(C#N)cnn23)ncc1-c1nnc(N2CCN(CC3CCN(c4ccc(C5CCC(=O)NC5=O)cn4)CC3)CC2)s1 (racemic) [Example 59, rac-7-{4-[(cyanomethyl)amino]-5-(5-{4-[(1-{5-[(3R)-2,6-dioxopiperidin-3-yl]pyridin-2-yl}piperidin-4-yl)methyl]piperazin-1-yl}-1,3,4-thiadiazol-2-yl)pyridin-2-yl}pyrrolo[1,2-b]pyridazine-3-carbonitrile]
18 | 111 | N#Cc1cnn2c(-c3cc(NC4COC4)c(-c4nnc(N5CCN(CC6CCN(c7ccc(C8CCC(=O)NC8=O)cn7)CC6)CC5)s4)cn3)ccc2c1 (racemic) [Example 61, rac-7-[5-(5-{4-[(1-{5-[(3R)-2,6-dioxopiperidin-3-yl]pyridin-2-yl}piperidin-4-yl)methyl]piperazin-1-yl}-1,3,4-thiadiazol-2-yl)-4-[(oxetan-3-yl)amino]pyridin-2-yl]pyrrolo[1,2-b]pyridazine-3-carbonitrile]
123 | 76 | CC(C)Nc1cc(-c2ccc3cc(C#N)cnn23)ncc1-c1nnc(N2CCN(CC3CCN(c4ccc(C5CCC(=O)NC5=O)cc4)CC3)CC2)s1 (racemic) [Example 64, rac-7-[5-(5-{4-[(1-{4-[(3R)-2,6-dioxopiperidin-3-yl]phenyl}piperidin-4-yl)methyl]piperazin-1-yl}-1,3,4-thiadiazol-2-yl)-4-[(propan-2-yl)amino]pyridin-2-yl]pyrrolo[1,2-b]pyridazine-3-carbonitrile]
8 | 110 | N#Cc1cnn2c(-c3cc(NC4CCOCC4)c(-c4nnc(N5CCN(C(=O)CN6CCc7cc(C8CCC(=O)NC8=O)ccc7C6)CC5)s4)cn3)ccc2c1 (racemic) [Example 66, rac-7-(5-{5-[4-(2-{6-[(3R)-2,6-dioxopiperidin-3-yl]-1,2,3,4-tetrahydroisoquinolin-2-yl}acetyl)piperazin-1-yl]-1,3,4-thiadiazol-2-yl}-4-[(oxan-4-yl)amino]pyridin-2-yl)pyrrolo[1,2-b]pyridazine-3-carbonitrile]
38 | 85 | N#Cc1cnn2c(-c3cc(NC4CC4)c(-c4nnc(N5CCN(CC6CCN(c7ccc(C8CCC(=O)NC8=O)cn7)CC6)CC5)s4)cn3)ccc2c1 (racemic) [Example 67, rac-7-[4-(cyclopropylamino)-5-(5-{4-[(1-{5-[(3R)-2,6-dioxopiperidin-3-yl]pyridin-2-yl}piperidin-4-yl)methyl]piperazin-1-yl}-1,3,4-thiadiazol-2-yl)pyridin-2-yl]pyrrolo[1,2-b]pyridazine-3-carbonitrile]
